Columns and labels:
[1] = Phase I safety: adverse events (CTCAE v3.0)
Protocol: Adverse events were recorded and graded according to the Common Terminology Criteria for Adverse Events, version 3.0.
Physical examinations, urinalysis, ECG, and laboratory evaluations (including serum chemistry and hematology) were performed at screening and on days 1, 2, 8, 15, 22, and 29 of cycle 1; on days 1, 15, and 29 of subsequent cycles; and at the end-of-treatment follow-up visit (14 days after the last dose). Adverse events were evaluated on days 2, 8, 15, and 22 of cycle 1; on days 1, 15, and 29 of every subsequent cycle; and at the end-of-treatment follow-up visit.

VEGFR-2/KDR = assay: Ex vivo bioassay of cellular VEGFR-2/KDR kinase inhibition with patient plasma in TrkA-VEGFR-2/KDR chimeric PAE cells; type: cell-based
Protocol: Pharmacokinetic parameters calculated after a single dose of CEP-11981 included area under the plasma drug concentration versus time curve (AUC) from zero to infinity (AUC0-∞), to the last measurable concentration (AUC0-t), and to 24 h (AUC0–24); maximum observed plasma drug concentration (Cmax); time to maximum observed plasma drug concentration (Tmax); terminal elimination half-life (t½); and predicted accumulation ratio (Rpred), which was defined as AUC0–∞ (day 1, cycle 1)/AUC0–24 (day 1, cycle 1). Pharmacokinetic parameters calculated after multiple doses included AUC0-t, Cmax, Tmax, and t½, and observed accumulation ratio (Robs). Robs was defined as AUC for 1 dosing interval following multiple doses (AUCτ; day 15, cycle 1)/AUC0–24 (day 1, cycle 1). […] Pharmacodynamics was assessed by VEGFR-2/KDR inhibitory activity in response to CEP-11981 treatment.
The venous blood samples for pharmacokinetic analysis were collected on days 1 and 15 of dosing during cycle 1 immediately before dose administration and at 0.5, 1, 1.5, 2, 3, 4, 6, 8, 12 (this sample was optional and could be collected from 10 to 14 h), and 24 h postdose, as well as on days 8, 22, 29, and 43. The venous blood samples for pharmacokinetic-pharmacodynamic analysis were collected on days 1 and 15 of dosing during cycle 1 immediately before dose administration and at 1 h postdose, and on day 43. At each draw, 2 samples were obtained in 6-mL sodium heparinized vacutainers. Plasma was obtained and stored at −70 °C until shipment to the sponsor for analysis.
A bioassay with engineered chimeric porcine aortic endothelial (PAE) cell lines stably expressing a TrkA-VEGFR-2/KDR domain was used to evaluate human plasma-associated shifts in cellular IC50 for CEP-11981 inhibition of ligand-stimulated VEGFR-2/KDR phosphorylation. Plasma samples for the bioassay were obtained 1 h postdose and on days 1 and 15; they were collected from patients across cohorts.

Aurora A = test system: Aurora A; design: method as in PMID 22148921; settings: cited from earlier work
[2] = Phase I dose escalation: MTD and DLTs; type: in vivo, human
Protocol: This was an open-label, nonrandomized, multicenter, dose-escalation phase I study of CEP-11981 in patients with advanced, relapsed/refractory solid tumors. The study was conducted in accordance with Good Clinical Practice: Consolidated Guidance approved by the International Conference on Harmonisation, and applicable national and local laws and regulations and approved by appropriate Independent Ethics Committees or Institutional Review Boards. All patients provided written consent before study procedures or assessments were performed.
The primary measures were MTD and DLTs. MTD was defined as the highest dose at which one-third or fewer of patients in a cohort experienced a DLT, which included grade ≥ 2 proteinuria, grade ≥ 3 nonhematologic toxicity (excluding hypertension and pain), grade ≥ 3 thrombocytopenia with bleeding, or grade 4 hematologic toxicity that was not clearly due to progressive cancer. Secondary measures included the pharmacokinetics of CEP-11981 after a single dose and multiple doses, the pharmacokinetic-pharmacodynamic profile of CEP-11981, safety, and preliminary efficacy. The efficacy endpoint was the proportion of patients who achieved complete or partial response on study (minimum of 6 weeks) according to Response Evaluation Criteria in Solid Tumors (RECIST) guidelines.
Oral CEP-11981 was administered once daily for the first 28 days of each 42-day cycle. Initial dose escalation from the starting dose of 3 mg/m^2 was by 40 % increments. After completion of additional toxicology studies and the preliminary analysis of plasma exposure in patients, the dose for the fourth cohort was doubled from the third cohort and thereafter the escalation followed a modified Fibonacci sequence. The final dose levels were: 3.0, 4.2, 5.9, 11.8, 19.7, 29.6, 41.4, 55.0, 73.0, 97.4, and 126.6 mg/m^2. The dose administered was rounded to the smallest capsule strength available. Dosing for a patient was to be stopped at the onset of a DLT and, at resolution within 14 days, could be resumed at a dose equal to 50 % of the patient’s current dose. […]

VEGFR-2 = test system: VEGFR-2; design: method as in PMID 22148921; settings: in vitro; cited from earlier work

Chain of VEGFR-2/KDR (P35968 786-1356 limits assumed): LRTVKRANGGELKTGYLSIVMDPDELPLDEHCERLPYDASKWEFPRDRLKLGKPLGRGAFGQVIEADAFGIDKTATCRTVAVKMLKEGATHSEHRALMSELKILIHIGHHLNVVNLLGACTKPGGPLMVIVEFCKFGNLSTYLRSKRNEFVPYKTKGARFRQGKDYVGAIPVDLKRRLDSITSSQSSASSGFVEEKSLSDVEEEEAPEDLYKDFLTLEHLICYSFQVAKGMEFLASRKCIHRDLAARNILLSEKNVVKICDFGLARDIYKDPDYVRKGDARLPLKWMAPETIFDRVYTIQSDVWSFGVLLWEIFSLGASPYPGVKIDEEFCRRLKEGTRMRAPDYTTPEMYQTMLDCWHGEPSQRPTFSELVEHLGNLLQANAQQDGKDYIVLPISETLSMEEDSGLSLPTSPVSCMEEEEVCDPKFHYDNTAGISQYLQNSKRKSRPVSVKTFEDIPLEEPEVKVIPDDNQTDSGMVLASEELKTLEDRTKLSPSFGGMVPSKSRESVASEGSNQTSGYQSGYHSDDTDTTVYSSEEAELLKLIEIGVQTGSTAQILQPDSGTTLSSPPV

## 11-(2-methylpropyl)-12,13-dihydro-2-methyl-8-(pyrimidin-2-ylamino)-4H-indazolo[5,4-a]pyrrolo[3,4-c]carbazol-4-one [CEP-11981]
[1]; 3.0 mg/m^2 n = 3
  Grade 3/4 adverse events: • Abdominal pain • Arthralgia • Back pain
[1]; 4.2 mg/m^2 n = 3
  Grade 3/4 adverse events: • Abdominal pain
[1]; 5.9 mg/m^2 n = 5
  Grade 3/4 adverse events: • Hyperkalemia
[1]; 19.7 mg/m^2 n = 3
  Grade 3/4 adverse events: • Back pain • Hypokalemia • Hyponatremia • Lumbar vertebral fracture
[1]; 55.0 mg/m^2 n = 5
  Grade 3/4 adverse events: • Abdominal pain • Anxiety • Arthralgia • Back pain • Cellulitis • Constipation • Hypokalemia • Impaired healing • Musculo-skeletal pain • Peripheral edema • Scrotal edema • Somnolence
[1]; 73.0 mg/m^2 n = 3
  Grade 3/4 adverse events: • Anemia • Leukopenia • Diarrhea • Decreased appetite • Musculo-skeletal pain • Neck pain • Headache • Pleural effusion
[1]; 126.6 mg/m^2 cohort
  Grade 4 leukopenia: 1 patient
  Grade 4 neutropenia: 1 patient
[1]; 126.6 mg/m^2 n = 2, ^b treatment-related
  Grade 3/4 adverse events: • Neutropenia^b • ECG change
[1]; across all groups
  Grade 3/4 abdominal pain: 7%
  Grade 3/4 back pain: 7%
  Grade 3/4 lymphopenia: 19%
  Grade 3/4 neutropenia: 7%
[1]; all cohorts
  Patients with ECG changes: 2%
  Patients with hypertension: 2%
[1]; all cohorts, N = 43
  Abdominal pain, any grade: 30%
  Back pain, any grade: 28%
  Constipation, any grade: 28%
  Deaths during the study: No deaths occurred
  Decreased appetite, any grade: 33%
  Diarrhea, any grade: 33%
  Dizziness, any grade: 28%
  Dyspnea, any grade: 23%
  Fatigue, any grade: 51%
  Headache, any grade: 28%
  Nausea, any grade: 47%
  Patients with adverse events possibly, probably, or definitely related to study drug: 88.3%
  Patients with grade 3 adverse events: 32.6%
  Patients with grade 3 or 4 adverse events: 37%
  Patients with grade 3 or 4 laboratory hematologic toxicities: 18.6%
  Patients with grade 4 adverse events: 4.7%
  Patients with ≥ 1 adverse event: 43 patients
  Serious adverse events: 12 patients
  Vomiting, any grade: 28%
VEGFR-2/KDR; 97.4 mg/m^2
  Patients with quintile 5 ex vivo VEGFR-2/KDR inhibition: 3 of 5
VEGFR-2/KDR; 126.6 mg/m^2
  Patients with quintile 5 ex vivo VEGFR-2/KDR inhibition: 1 of 1
VEGFR-2/KDR; plasma from lower dose cohorts (3.0, 4.2, 5.9, 11.8, and 19.7 mg/m^2), normalized to predose baseline
  Inhibition of VEGFR-2/KDR kinase: Less than 50%
VEGFR-2/KDR; plasma primarily from 73.0, 97.4, and 126.6 mg/m^2 cohorts (quintile 5)
  Normalized mean cellular VEGFR-2/KDR inhibition: ≥ 81%
Aurora A
  IC50: 42 nM
[2]; 97.4 mg/m^2 cohort, n = 9
  DLTs: no DLTs were observed
[2]; 126.6 mg/m^2 cohort, n = 2
  Patients with DLTs: 2 patients
[2]; oral once daily, first 28 days of each 42-day cycle, patients with solid tumors
  Maximum-tolerated dose (MTD): 97.4 mg/m^2
VEGFR-2
  IC50: 4 nM

— article PMC4226840, “An open-label study to determine the maximum tolerated dose of the multitargeted tyrosine kinase inhibitor CEP-11981 in patients with advanced cancer” (Investigational New Drugs, 2014)
